Measured values published in ChEMBL document CHEMBL5104127, “Design and preparation of N-linked hydroxypyridine-based APJ agonists” (Bioorg Med Chem Lett, 2022).

Columns and labels:
Apelin receptor = target: T1, Apelin receptor (Homo sapiens, UniProt P35414); experiment: Agonist activity at human APJ receptor expressed in HEK293 cells assessed as compound stimulated inhibition of forskolin stimulated cAMP production incubated for 30 mins and measured by fluorescence based assay; type: functional, cell-based
T1 sequence (P35414 whole entry): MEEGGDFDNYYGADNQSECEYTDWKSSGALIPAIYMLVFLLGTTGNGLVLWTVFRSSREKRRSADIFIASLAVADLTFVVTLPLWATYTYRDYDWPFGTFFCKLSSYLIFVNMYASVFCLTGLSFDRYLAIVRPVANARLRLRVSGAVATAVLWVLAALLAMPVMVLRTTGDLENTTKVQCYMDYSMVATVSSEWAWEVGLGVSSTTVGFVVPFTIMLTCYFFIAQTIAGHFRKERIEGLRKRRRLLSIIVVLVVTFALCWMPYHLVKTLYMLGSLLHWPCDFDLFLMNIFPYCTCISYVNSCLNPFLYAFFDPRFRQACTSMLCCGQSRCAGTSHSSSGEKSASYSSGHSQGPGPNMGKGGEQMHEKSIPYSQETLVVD

[1] = Metabolic stability in human liver microsomes incubated for 10 mins and assessed as compound remaining; type: ADME, Microsome; settings: read-out: Stability
[2] = Metabolic stability in rat liver microsomes incubated for 10 mins and assessed as compound remaining; type: ADME, Microsome; settings: read-out: Stability
[3] = Cmax in rat at 1 mg/kg, po; type: ADME, organism-based; set-up: dose 1 mg/kg, route po; settings: in vivo
[4] = AUC in rat at 1 mg/kg, po; type: ADME, organism-based; set-up: dose 1 mg/kg, route po; settings: in vivo

Row | Compound | EC50 (Apelin receptor) [nM] | remaining at 10 min [1] [%] | remaining at 10 min [2] [%] | Cmax [3] [µM] | AUC [4] [µM·h]
1 | CCCCc1nc(O)c(C(=O)N2CC[C@H](c3ccccc3)C2)c(O)c1N1CCc2ccccc21 | 21 |  |  |  | 
2 | CCCCc1nc(O)c(C(=O)N2CC[C@H](c3ccccc3)C2)c(O)c1N(C)c1ccccc1OC | > 75 |  |  |  | 
3 | CCCCc1nc(O)c(C(=O)N2CC[C@H](c3ccccc3)C2)c(O)c1N(C)c1ccc(OC)cc1 | 62 |  |  |  | 
4 | CCN(c1ccccc1)c1c(CC2CC2)nc(O)c(C(=O)N2CCC(c3ncc(F)cc3F)C2)c1O (stereo unspecified) | 13 |  |  |  | 
5 | CCCCc1nc(O)c(C(=O)N2CC[C@H](c3ccccc3)C2)c(O)c1N(C)c1cccc(OC)c1 | > 75 |  |  |  | 
6 | CCCCc1nc(O)c(C(=O)N2CC[C@@H](c3ccccc3)C2)c(O)c1N(CC)c1ccccc1 | 12 | 56 | 17 |  | 
7 | CCCCc1nc(O)c(C(=O)N2CCN(Cc3cccc(Cl)c3Cl)CC2)c(O)c1N(CC)c1ccccc1 | 16 |  |  |  | 
8 | CCCCc1nc(O)c(C(=O)N2CC[C@H](c3ccccc3)C2)c(O)c1N(CC)c1ccccc1 | 13 | 27 | 7 |  | 
9 | CCCCc1nc(O)c(C(=O)N2CC[C@H](c3ccccc3)C2)c(O)c1N(c1ccccc1)C(C)C | 35 |  |  |  | 
10 | CCCCc1nc(O)c(C(=O)N2CC[C@H](c3ccccc3)C2)c(O)c1N1CCCc2ccccc21 | > 150 |  |  |  | 
11 | CCCCc1nc(O)c(C(=O)N2CC[C@H](c3ccccc3)C2)c(O)c1N(C)c1ccccc1 | 38 |  |  |  | 

Molecules with a lower EC50 (Apelin receptor), results first:

Row | EC50 (Apelin receptor) [nM] | remaining at 10 min [1] [%] | remaining at 10 min [2] [%] | Cmax [3] [µM] | AUC [4] [µM·h] | Compound
12 | 8.4 |  |  |  |  | CCCCc1nc(O)c(C(=O)N2CCC(c3ccccc3F)C2)c(O)c1N(CC)c1ccccc1 (stereo unspecified)
13 | 0.3 | 87 | 82 | 5.2 | 4.8 | CCN(c1ccccc1)c1c(-c2ccn(C)n2)nc(O)c(C(=O)N2CCC(c3ncc(F)cc3F)C2)c1O (stereo unspecified)
14 | 0.28 | 62 | 26 |  |  | CCCCc1nc(O)c(C(=O)N2CCC(c3ccc(Cl)cn3)C2)c(O)c1N(CC)c1ccccc1 (stereo unspecified)
15 | 0.24 |  |  |  |  | CCCCc1nc(O)c(C(=O)N2CCC(c3ncc(F)cc3F)C2)c(O)c1N(CC)c1ccccc1 (stereo unspecified)
16 | 0.24 | 53 | 12 |  |  | CCCCc1nc(O)c(C(=O)N2CCC(c3ncc(Cl)cc3F)C2)c(O)c1N(CC)c1ccccc1 (stereo unspecified)
17 | 0.1 | 57 | 7 |  |  | CCN(c1ccccc1)c1c(-c2cccc(C)c2)nc(O)c(C(=O)N2CCC(c3ncc(F)cc3F)C2)c1O (stereo unspecified)
